Drawing on ChEMBL document CHEMBL3259619, “Antibacterial activity of a series of N2,N4-disubstituted quinazoline-2,4-diamines” (J Med Chem, 2014), this text covers MIC and inhibition for 10 compounds.

In experiment [1] the test system is Staphylococcus aureus. Description: Antimicrobial activity against methicillin-resistant Staphylococcus aureus CBD-635 assessed as complete inhibition of bacterial growth after overnight incubation. The experiment is classed as functional.
Experiment [2] deals with Staphylococcus aureus. Put plainly: Antimicrobial activity against N2,N4-dibenzylquinazoline-2,4-diamine-induced methicillin-resistant Staphylococcus aureus CBD-635 mutant M1 assessed as complete inhibition of bacterial growth after overnight incubation. The experiment is classed as functional.
Experiment [3] relates to Staphylococcus aureus. Description: Antimicrobial activity against N2,N4-dibenzylquinazoline-2,4-diamine-induced methicillin-resistant Staphylococcus aureus CBD-635 mutant M2 assessed as complete inhibition of bacterial growth after overnight incubation. The experiment is classed as functional.
Experiment [4] relates to Staphylococcus aureus. Put plainly: Antimicrobial activity against N2,N4-dibenzylquinazoline-2,4-diamine-induced methicillin-resistant Staphylococcus aureus CBD-635 mutant M3 assessed as complete inhibition of bacterial growth after overnight incubation. The class given is functional.
Experiment [5] has as its system Staphylococcus aureus. Put plainly: Antimicrobial activity against N2,N4-dibenzylquinazoline-2,4-diamine-induced methicillin-resistant Staphylococcus aureus CBD-635 mutant M4 assessed as complete inhibition of bacterial growth after overnight incubation. The class given is functional.
Experiment [6] has as its system Staphylococcus aureus. Description: Antimicrobial activity against N2,N4-dibenzylquinazoline-2,4-diamine-induced methicillin-resistant Staphylococcus aureus CBD-635 mutant M5 assessed as complete inhibition of bacterial growth after overnight incubation. The experiment is classed as functional.
Experiment [7] concerns Staphylococcus aureus. Description: Antimicrobial activity against N2,N4-dibenzylquinazoline-2,4-diamine-induced methicillin-resistant Staphylococcus aureus CBD-635 mutant M6 assessed as complete inhibition of bacterial growth after overnight incubation. The class given is functional.
Experiment [8] concerns Staphylococcus aureus. Description: Antimicrobial activity against N2,N4-dibenzylquinazoline-2,4-diamine-induced methicillin-resistant Staphylococcus aureus CBD-635 mutant M7 assessed as complete inhibition of bacterial growth after overnight incubation. The class given is functional.
Experiment [9] relates to Staphylococcus aureus. Description: Antimicrobial activity against methicillin-resistant Staphylococcus aureus CBD-635 assessed as complete inhibition of bacterial growth at 5 times MIC after overnight incubation in presence of tetrahydrofolic acid. The experiment is classed as functional, organism-based.

Structures are written as SMILES. ≈ marks a conversion by molar mass, not a printed value. Calls of active or inactive are those of the source. No rule for the calls is given here. Some results are limits rather than exact numbers.

For `COc1ccc(CNc2nc(NCc3ccccc3)nc3ccccc23)cc1`, the minimum inhibitory concentration (MIC) in experiment [1] worked out at 68 µM (≈ 25.2 µg/mL); in [2] it was 27 µM (≈ 10 µg/mL); in experiment [3] it was 27 µM (≈ 10 µg/mL); in [4] it was 27 µM (≈ 10 µg/mL); in [5], 2.7 µM (≈ 1 µg/mL); in [6], 27 µM (≈ 10 µg/mL). Also, the MIC in experiment [7] was determined as 2.7 µM (≈ 1 µg/mL); in [8], 27 µM (≈ 10 µg/mL). For the same compound, the inhibition result in [9] is “inactive”.
Consider `Cc1ccc(CNc2nc(NCc3ccccc3)c3ccccc3n2)cc1`, for which the minimum inhibitory concentration (MIC) in experiment [1] came to 28 µM (≈ 9.92 µg/mL); in [2], 28 µM (≈ 9.92 µg/mL); in [3] it was 2.8 µM (≈ 0.992 µg/mL); in [4], 2.8 µM (≈ 0.992 µg/mL); in [5], 2.8 µM (≈ 0.992 µg/mL); in experiment [6] it was 2.8 µM (≈ 0.992 µg/mL). Besides, the MIC in experiment [7] and in [8] was 2.8 µM (≈ 0.992 µg/mL) in each case. For the same compound, the inhibition result in experiment [9] was “inactive”.
Consider `Cc1ccc(CNc2nc(NCc3ccccc3)nc3ccccc23)cc1`, for which the MIC in experiment [1] turned out to be 71 µM (≈ 25.2 µg/mL); in experiment [2], 2.8 µM (≈ 0.992 µg/mL); in experiment [3], 2.8 µM (≈ 0.992 µg/mL); in experiment [4] it was 28 µM (≈ 9.92 µg/mL); in experiment [5], 28 µM (≈ 9.92 µg/mL); in experiment [6], 28 µM (≈ 9.92 µg/mL). The minimum inhibitory concentration (MIC) in [7] and in experiment [8] was 28 µM (≈ 9.92 µg/mL) in each case. Moreover, the inhibition result in [9] is “inactive”.
Turning to `Clc1ccc2c(NCc3ccccc3)nc(NCc3ccccc3)nc2c1`, the minimum inhibitory concentration (MIC) in experiment [1] was 27 µM (≈ 10.1 µg/mL); in experiment [2] it was 27 µM (≈ 10.1 µg/mL); in [3] it was 27 µM (≈ 10.1 µg/mL); in [4] it was 2.7 µM (≈ 1.01 µg/mL); in experiment [5] it was 2.7 µM (≈ 1.01 µg/mL); in experiment [6], 2.7 µM (≈ 1.01 µg/mL). For the same compound, the MIC in experiment [7] and in [8] was 2.7 µM (≈ 1.01 µg/mL) in each case. Moreover, the inhibition entry in experiment [9] is “inactive”.
Take `Clc1ccc(CNc2nc(NCc3ccccc3)nc3ccccc23)cc1`: the MIC in [1] was found to be 67 µM (≈ 25.1 µg/mL); in experiment [2], 2.7 µM (≈ 1.01 µg/mL); in [3] it was 2.7 µM (≈ 1.01 µg/mL); in experiment [4], 2.7 µM (≈ 1.01 µg/mL); in experiment [5], 2.7 µM (≈ 1.01 µg/mL); in experiment [6], 2.7 µM (≈ 1.01 µg/mL). Also, the MIC in experiment [7] and in experiment [8] was 2.7 µM (≈ 1.01 µg/mL) in each case. In addition, the inhibition result in [9] was “inactive”.
`Cc1ccc(CNc2nc(NCc3ccc(C)cc3)c3ccccc3n2)cc1`: the minimal inhibitory concentration (MIC) in [1] was 27 µM (≈ 9.95 µg/mL); in [2], 27 µM (≈ 9.95 µg/mL); in experiment [3] it was 27 µM (≈ 9.95 µg/mL); in experiment [4], 2.7 µM (≈ 0.995 µg/mL); in [5], 2.7 µM (≈ 0.995 µg/mL); in experiment [6], 2.7 µM (≈ 0.995 µg/mL). For the same compound, the MIC in experiment [7] and in experiment [8] was 2.7 µM (≈ 0.995 µg/mL) throughout. Moreover, the inhibition result in [9] is “inactive”.
Turning to `COc1ccc(CNc2nc(NCc3ccccc3)c3ccccc3n2)cc1`, the minimum inhibitory concentration (MIC) in [1] turned out to be 0.67 µM (≈ 0.248 µg/mL); in [2], 0.67 µM (≈ 0.248 µg/mL); in experiment [3], 0.67 µM (≈ 0.248 µg/mL); in experiment [4] it was 0.67 µM (≈ 0.248 µg/mL); in experiment [5], 270 µM (≈ 100 µg/mL); in [6], 270 µM (≈ 100 µg/mL). Further, the minimum inhibitory concentration (MIC) in experiment [7] and in experiment [8] was 270 µM (≈ 100 µg/mL) each time. For the same compound, in experiment [9], the inhibition result was “inactive”.
With `COc1ccc(CNc2nc(NCc3ccc(OC)cc3)c3ccccc3n2)cc1`, the MIC was 25 µM (≈ 10 µg/mL) in experiment [1]; above 250 µM in [2]; above 250 µM in experiment [3]; above 250 µM in experiment [4]; above 250 µM in experiment [5]; 125 µM (≈ 50.1 µg/mL) in experiment [6]. The MIC was 125 µM (≈ 50.1 µg/mL) in experiment [7] and above 250 µM in experiment [8]. Moreover, in experiment [9], the inhibition entry is “inactive”.
For `CCCCNc1nc(NCc2ccccc2)c2ccc(Cl)cc2n1`, the minimum inhibitory concentration (MIC) in experiment [1], in [2], in experiment [3], in experiment [4], in experiment [5] and in experiment [6] was 0.73 µM (≈ 0.249 µg/mL) each time. The MIC in experiment [7] and in experiment [8] was 0.73 µM (≈ 0.249 µg/mL) throughout. Besides, in experiment [9], the inhibition entry was “inactive”.
`Clc1ccc(CNc2nc(NCc3ccccc3)c3ccccc3n2)cc1`: the minimal inhibitory concentration (MIC) in [1] came to 27 µM (≈ 10.1 µg/mL); in experiment [2], 27 µM (≈ 10.1 µg/mL); in [3], 2.7 µM (≈ 1.01 µg/mL); in experiment [4] it was 2.7 µM (≈ 1.01 µg/mL); in experiment [5], 2.7 µM (≈ 1.01 µg/mL); in experiment [6], 2.7 µM (≈ 1.01 µg/mL). Moreover, the MIC in experiment [7] and in experiment [8] was 2.7 µM (≈ 1.01 µg/mL) throughout. In addition, in [9], the inhibition entry is “inactive”.
